Values after ≈ are worked out from the molar mass of the structure shown. Counter-ions that a name gives are not always drawn. Like-named read-outs stand apart in the source and are kept apart here.
Columns and labels:
Type in all cases: cell-based
[1] = system: Aspergillus fumigatus T33439 (ATCC MYA-3626); assay: Fungal MIC Protocol, Aspergillus fumigatus; conditions: Aspergillus fumigatus, read-out: MIC Aspergillus fumigatus 3626
Experimental: (§1) Fungal MIC Protocol: RPMI/MOPS media (Roswell Park Memorial Institute/3-morpholinopropane-1-sulfonic acid media) is prepared by dissolving 8.4 grams RPMI […] (Sigma cat #R1383), 34.52 grams MOPS buffer (Sigma cat #M3.183) and 2 […] glucose in 900 mL deionized water. The pH is adjusted to 7.0 with NaOH and filter sterilized. 0.1 mL, of a stock spore suspension (or loop from frozen stock) is inoculated to a 75 mL tissue culture flask (Falcon cat #353136) containing 50 mL of Potato Dextrose Agar (PDA, 24 grams PD broth (Fisher cat #DF 0549179), 20 grams agar (Fisher cat #BP 1423500) per liter water). Aspergillus and Fusarium strains are grown at 35° C. and Mucor strains are grown at room temperature for 3-5 days. Spores are harvested by flooding the flask with 5 mL phosphate buffered saline (PBS) pH 7.4+0.1% Tween-20 and several glass beads (Fisher cat #S800243) are added to aid in agitation. The supernatant is removed and the OD530 of a 1:100 dilution is measured. Spores are diluted in RPMI/MOPS to a final OD530 of 0.002 for Aspergillus and an OD530 of 0.005 for Fusarium and Mucor. The final concentration of spores is approximately 2×10^4 cfu/mL. Test compound(s) are diluted to 200 ug/mL in RPMI/MOPS ([…]). Ten (10) serial dilutions are prepared with RPMI/MOPS in a 96-well round bottom plate (Fisher cat #353136). For Mucor strains a sterile flat-bottom 96-well plate is used. 50 μl of compound dilutions in duplicate are added to a sterile 96-well round bottom plate. 50 ul of diluted spores are added to the compound-containing plates. Control wells include 1) compound but no cells and 2) spores but no compound. Mix the plates gently by hand, place in ziplock bags and
(§2) incubate at 35° C. for 48 hours. […]

[2] = system: Mucor circinelloides 1463(62) (ATCC 26759); assay: Fungal MIC Protocol, Mucor circinelloides (MIC-50); conditions: Mucor circinelloides, read-out: MIC-50 Mucorales circinelloides 26579
Experimental: as §1
(§3) incubate at 35° C. for 48 hours. Score the MIC visually (lowest concentration of compound showing >50% growth inhibition) using an inverted mirror.

[3] = system: Fusarium solani (ATCC 58877); assay: Fungal MIC Protocol, Fusarium solani; conditions: Fusarium solani, read-out: MIC Fusarium solani 58877
Experimental: as §1, §2

[4] = system: Mucor ramosissimus 057718 (ATCC 90286); assay: Fungal MIC Protocol, Mucor ramosissimus (MIC-50); conditions: Mucor ramosissimus, read-out: MIC-50 Mucorales ramosissimus 90286
Experimental: as §1, §3

[5] = system: Aspergillus flavus AFL1 (ATCC MYA-3631); assay: Fungal MIC Protocol, Aspergillus flavus; conditions: Aspergillus flavus, read-out: MIC Aspergillus flavus 3631
Experimental: as §1, §2

[6] = system: Fusarium falciforme FS1 (ATCC MYA-3636); assay: Fungal MIC Protocol, Fusarium falciforme; conditions: Fusarium falciforme, read-out: MIC Fusarium falciforme 3636
Experimental: as §1, §2

[7] = 100% growth inhibition at 48 hours
[8] = ATCC26759, 50% growth inhibition at 48 hours
[9] = ATCC58877, 100% growth inhibition at 48 hours
[10] = ATCC90286, 50% growth inhibition at 48 hours

Row | Structure (SMILES) | MIC [1, 7] [µg/mL] | MIC50 [2, 8] [µg/mL] | MIC [3, 9] [µg/mL] | MIC50 [4, 10] [µg/mL] | MIC [5, 7] [µg/mL] | MIC [6, 7] [µg/mL] | MIC ([1]; 48 h) [µg/mL] | MIC50 ([2]; ATCC26759, 48 h) [µg/mL] | MIC ([3]; ATCC58877, 48 h) [µg/mL] | MIC50 ([4]; ATCC90286, 48 h) [µg/mL] | MIC ([5]; 48 h) [µg/mL] | MIC ([6]; 48 h) [µg/mL]
1 | N=C(N)N1CC=C(c2ccc(-c3nnc(-c4ccc(C5=CCN(C(=N)N)CC5)cc4)n3C3CC3)cc2)CC1 [Example 4, 4,4′-(4,4′-(4-Cyclopropyl-4H-1,2,4-triazole-3,5-diyl)bis(4,1-phenylene)) bis(5,6-dihydropyridine-1(2H)-carboximidamide)] | < 0.1 | 0.39 (≈ 0.768 µM) | 0.2 (≈ 0.394 µM) | 1.56 (≈ 3.07 µM) | 0.39 (≈ 0.768 µM) | < 0.1 | – | – | – | – | – | –
2 | N=C(N)N1CC=C(c2ccc(-c3nnc(-c4ccc(C5=CCN(C(=N)N)CC5)cc4)n3Cc3ccccc3)cc2)CC1 [Example 5, 4,4′-(4,4′-(4-Benzyl-4H-1,2,4-triazole-3,5-diyl)bis(4,1-phenylene))bis(5,6-dihydropyridine-1(2H)-carboximidamide)] | 0.39 (≈ 0.699 µM) | 1.56 (≈ 2.8 µM) | 0.39 (≈ 0.699 µM) | 6.25 (≈ 11.2 µM) | 1.56 (≈ 2.8 µM) | < 0.1 | – | – | – | – | – | –
3 | N=C(N)N1CC=C(c2ccc(-c3nnc(-c4ccc(C5=CCN(C(=N)N)CC5)cc4F)n3Cc3ccccc3)c(F)c2)CC1 [Example 18] | 0.39 (≈ 0.657 µM) | 0.78 (≈ 1.31 µM) | 0.39 (≈ 0.657 µM) | 0.78 (≈ 1.31 µM) | 0.78 (≈ 1.31 µM) | < 0.1 | – | – | – | – | – | –
4 | CC(C)Nc1cc(C2=CCN(C(=N)N)CC2)ccc1-c1nnc(-c2ccc(C3=CCN(C(=N)N)CC3)cc2F)n1C(C)C [Example 26, 4-(4-(5-(4-(1-Carbamimidoyl-1,2,3,6-tetrahydropyridin-4-yl)-2-(isopropylamino)phenyl)-4-isopropyl-4H-1,2,4-triazol-3-yl)-3-fluorophenyl)-5,6-dihydro pyridine-1(2H)-carboximidamide] | 100 (≈ 171 µM) | 12.5 (≈ 21.4 µM) | – | 100 (≈ 171 µM) | 12.5 (≈ 21.4 µM) | – | – | – | – | – | – | –
5 | Cn1c(-c2ccc(C3=CCN(C(=N)N)C3)cc2F)nnc1-c1ccc(C2=CCN(C(=N)N)C2)cc1F [Example 28, 3,3′-(4,4′-(4-Methyl-4H-1,2,4-triazole-3,5-diyl)bis(3-fluoro-4,1-phenylene)) bis(2,5-dihydro-1H-pyrrole-1-carboximidamide)] | < 0.1 | > 100 | < 0.1 | > 100 | < 0.1 | < 0.1 | – | – | – | – | – | –
6 | Cn1c(-c2ccc(C3=CCC(NC(=N)N)CC3)cc2F)nnc1-c1ccc(C2=CCC(NC(=N)N)CC2)cc1F (stereo not shown) [Example 40, 1-[4-(4-{5-[4-(4-Carbamimidamidocyclohex-1-en-1-yl)-2-fluorophenyl]-4-methyl-4H-1,2,4-triazol-3-yl}-3-fluorophenyl)cyclohex-3-en-1-yl]guanidine] | 6.25 (≈ 11.5 µM) | 6.25 (≈ 11.5 µM) | 1.56 (≈ 2.86 µM) | 50 (≈ 91.6 µM) | 6.25 (≈ 11.5 µM) | 1.56 (≈ 2.86 µM) | – | – | – | – | – | –
7 | CC(O)Cn1c(-c2ccc(C3=CCN(C(=N)N)CC3)cc2F)nnc1-c1ccc(C2=CCN(C(=N)N)CC2)cc1F (stereo not shown) [Example 66, 4-(4-{5-[4-(1-carbamimidoyl-1,2,3,6-tetrahydropyridine-4-yl)-2-fluorophenyl]-4-(2-hydroxypropyl)-4H-1,2,4-triazol-3-yl}-3-fluorophenyl)-1,2,3,6-tetrahydropyridine-1-carboximidamide trifluoroacetate] | – | – | – | – | – | – | 0.2 | 1.56 | 0.2 | 6.25 | 0.39 | 0.1
8 | N=C(N)N1CC=C(c2ccc(-c3nnc(-c4ccc(C5=CCN(C(=N)N)CC5)cc4F)n3C(CO)CO)c(F)c2)CC1 [Example 71, 4-(4-{5-[4-(1-carbamimidoyl-1,2,3,6-tetrahydropyridin-4-yl)-2-fluorophenyl]-4-(1,3-dihydroxypropan-2-yl}-4H-1,2,4-triazol-3-yl)-3-fluorophenyl)-1,2,3,6-tetrahydropyridine-1-carboximidamide hydrochloride] | – | – | – | – | – | – | 1.56 | 25 | 0.39 | 25 | 3.13 | 1.56
9 | CN(C)CCn1c(-c2ccc(C3=CCN(C(=N)N)CC3)cc2F)nnc1-c1ccc(C2=CCN(C(=N)N)CC2)cc1F.Cl [Example 72, 4-(4-{5-[4-(1-carbamimidoyl-1,2,3,6-tetrahydropyridin-4-yl)-2-fluorophenyl]-4-[2-(dimethylamino)ethyl]-4H-1,2,4-triazol-3-yl}-3-fluorophenyl)-1,2,3,6-tetrahydropyridine-1-carboximidamide hydrochloride] | 0.39 | 6.25 | 0.1 | 12.5 | 0.78 | 0.2 | – | – | – | – | – | –
10 | CC(C)(O)Cn1c(-c2ccc(C3=CCN(C(=N)N)CC3)cc2F)nnc1-c1ccc(C2=CCN(C(=N)N)CC2)cc1F [Example 74, 4-(4-{5-[4-(1-carbamimidoyl-1,2,3,6-tetrahydropyridin-4-yl)-2-fluorophenyl]-4-(2-hydroxy-2-methylpropyl)-4H-1,2,4-triazol-3-yl}-3-fluorophenyl)-1,2,3,6-tetrahydropyridine-1-carboximidamide hydrochloride] | – | – | – | – | – | – | 0.39 | 1.56 | 0.1 | 3.13 | 0.78 | 0.1
11 | COc1cc(C2=CCN(C(=N)N)CC2)ccc1-c1nnc(-c2ccc(C3=CCN(C(=N)N)CC3)cc2OC)n1CCO [Example 75, 4-(4-{5-[4-(1-carbamimidoyl-1,2,3,6-tetrahydropyridin-4-yl)-2-methoxyphenyl]-4-(2-hydroxyethyl)-4H-1,2,4-triazol-3-yl}-3-methoxyphenyl)-1,2,3,6-tetrahydropyridine-1-carboximidamide trifluoroacetate] | – | – | – | – | – | – | 1.56 | 25 | 0.39 | 25 | 3.13 | 1.56
12 | COc1cc(-c2nnc(-c3ccc(C4=CCN(C(=N)N)CC4)c(OC)c3)n2CCO)ccc1C1=CCN(C(=N)N)CC1 [Example 76, 4-(4-{5-[4-(1-carbamimidoyl-1,2,3,6-tetrahydropyridin-4-yl)-3-methoxyphenyl]-4-(2-hydroxyethyl)-4H-1,2,4-triazol-3-yl}-2-methoxyphenyl)-1,2,3,6-tetrahydropyridine-1-carboximidamide trifluoroacetate] | – | – | – | – | – | – | 0.78 | 25 | 0.39 | 25 | 3.13 | 0.78
13 | N=C(N)N1CC=C(c2ccc(-c3nnc(-c4ccc(C5=CCN(C(=N)N)CC5)cc4F)n3CCOCCO)c(F)c2)CC1 [Example 77, 4-(4-{5-[4-(1-carbamimidoyl-1,2,3,6-tetrahydropyridin-4-yl)-2-fluorophenyl]-4-[2-(2-hydroxyethoxy)ethyl]-4H-1,2,4-triazol-3-yl}-3-fluorophenyl)-1,2,3,6-tetrahydropyridine-1-carboximidamide trifluoroacetate] | – | – | – | – | – | – | 0.2 | 6.25 | 0.2 | 25 | 0.78 | 0.2
14 | N=C(N)N1CC=C(c2ccc(-c3nnc(-c4ccc(C5=CCN(C(=N)N)CC5)c(C(F)(F)F)c4)n3CCO)cc2C(F)(F)F)CC1 [Example 80, 4-(4-{5-[4-(1-carbamimidoyl-1,2,3,6-tetrahydropyridin-4-yl)-3-(trifluoromethyl)phenyl]-4-(2-hydroxyethyl)-4H-1,2,4-triazol-3-yl}-2-(trifluoromethyl)phenyl)-1,2,3,6-tetrahydropyridine-1-carboximidamide hydrochloride] | – | – | – | – | – | – | 25 | 25 | 25 | 25 | 25 | 25

From US20240018121A1, “NOVEL HETEROAROMATIC COMPOUNDS EXHIBITING ANTIFUNGAL ACTIVITY AND THEIR METHOD OF USE” (FOX CHASE CHEMCIAL DIVERSITY CENTER, INC., priority 2020, published 2024)
